Test results taken from US11884675B2, “Heterocyclic compounds as triggering receptor expressed on myeloid cells 2 agonists and methods of use” (AMGEN INC., priority 2020, dated 2024).

Target: hTREM2 (Homo sapiens, UniProt Q9NZC2)
Test: TREM2 agonist potency by Syk phosphorylation (AlphaLisa) in HEK293T-hTREM2 cells, used for Examples 306-429
Format: cell-based
Set-up: expressed in transfected cells; host or cells: HEK293T (HEK293T-hTREM2 cells)
Details: HEK293 Cells
Outline: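 HEK293T cells expressing human TREM2 and DAP12, plated 20-24 h before, were exposed to compounds for 45 min at room temperature, then lysed. Phospho-Syk read by AlphaLisa; % activation from a standard curve and EC50 from a four-parameter log(agonist) fit.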

Sequence of hTREM2 (Q9NZC2 19-230): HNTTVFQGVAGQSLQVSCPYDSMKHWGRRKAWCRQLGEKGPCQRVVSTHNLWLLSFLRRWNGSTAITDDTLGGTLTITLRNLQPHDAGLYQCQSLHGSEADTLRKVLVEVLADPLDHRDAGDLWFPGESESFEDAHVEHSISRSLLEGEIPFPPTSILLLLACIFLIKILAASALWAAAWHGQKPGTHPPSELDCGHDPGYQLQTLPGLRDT
Sequence of hTREM2 (O43914 22-113 partner): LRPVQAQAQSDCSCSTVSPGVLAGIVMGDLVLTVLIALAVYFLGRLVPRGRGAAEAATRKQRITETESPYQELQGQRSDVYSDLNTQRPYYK

| Structure (SMILES) | EC50 |
| --- | --- |
| Cc1cnc2c(-c3ccc(Cl)cc3F)nc([C@@H]3CCO[C@@H](c4cnn(C5CC5)c4)C3)nc2n1 [Example 350, 4-(4-chloro-2-fluorophenyl)-2-((2R,4R)-2-(1-cyclopropyl-1H-pyrazol-4-yl)tetrahydro-2H-pyran-4-yl)-7-methylpteridine] | 500 to 3000 nM |
| Cc1cc(C2CN(c3nc(-c4cc(F)c(Cl)cc4F)c4nc(C)c(C)nc4n3)CCO2)ccn1 (stereo not drawn) [Example 352, 4-(4-(4-chloro-2,5-difluorophenyl)-6,7-dimethylpteridin-2-yl)-2-(2-methylpyridin-4-yl)morpholine] | ≤ 50 nM |
| Cc1cc([C@H]2CN(c3nc(-c4ccc(Cl)c(F)c4F)c4nc(C)c(C)nc4n3)CCO2)ccn1 [Example 363, (S)-4-(4-(4-chloro-2,3-difluorophenyl)-6,7-dimethylpteridin-2-yl)-2-(2-methylpyridin-4-yl)morpholine] | ≤ 50 nM |
| Cc1cc([C@@H]2CN(c3nc(-c4ccc(Cl)c(F)c4F)c4nc(C)c(C)nc4n3)CCO2)ccn1 [Example 364, (R)-4-(4-(4-chloro-2,3-difluorophenyl)-6,7-dimethylpteridin-2-yl)-2-(2-methylpyridin-4-yl)morpholine] | ≤ 50 nM |
| Cc1cc(C2CN(c3cc4nc(C)cnc4c(C45CC(C(F)(F)F)(C4)C5)n3)CCO2)ccn1 (stereo not drawn) [Example 376, 2-(2-methyl-4-pyridyl)-4-[2-methyl-5-[3-(trifluoromethyl)-1-bicyclo[1.1.1]pentanyl]pyrido[3,4-b]pyrazin-7-yl]morpholine] | 500 to 3000 nM |
| Cc1nc2cc([C@H]3C[C@@H](C)O[C@@H](c4cnn(C5CC5)c4)C3)nc(-c3ccc(F)cc3F)c2nc1C [Example 380, 7-[(2R,4S,6R)-2-(1-cyclopropylpyrazol-4-yl)-6-methyl-tetrahydropyran-4-yl]-5-(2,4-difluorophenyl)-2,3-dimethyl-pyrido[3,4-b]pyrazine] | ≤ 50 nM |
| Cc1nc2nc(N3CCOC(c4cnn(C5CC5)c4)C3)nc(-c3ccc(Cl)cc3F)c2nc1C (stereo not drawn) [Example 381, 4-[4-(4-chloro-2-fluoro-phenyl)-6,7-dimethyl-pteridin-2-yl]-2-(1-cyclopropylpyrazol-4-yl)morpholine] | ≤ 50 nM |
| Cc1nc2cc(N3CCO[C@@H](c4cnn(C5CC5)c4)C3)nc(-c3ccc(Cl)cc3F)c2nc1C [Example 382, (2S)-4-[5-(4-chloro-2-fluoro-phenyl)-2,3-dimethyl-pyrido[3,4-b]pyrazin-7-yl]-2-(1-cyclopropylpyrazol-4-yl)morpholine] | ≤ 50 nM |
| Cc1nc2cc(N3CCO[C@H](c4cnn(C5CC5)c4)C3)nc(-c3ccc(Cl)cc3F)c2nc1C [Example 383, (2R)-4-[5-(4-chloro-2-fluoro-phenyl)-2,3-dimethyl-pyrido[3,4-b]pyrazin-7-yl]-2-(1-cyclopropylpyrazol-4-yl)morpholine] | 50 to 500 nM |
| Cc1nc2cc(N3CCO[C@@H](c4cnn(C5CC5)c4)C3)nc(-c3ccc(C(F)(F)F)nc3)c2nc1C [Example 384, (2S)-2-(1-cyclopropylpyrazol-4-yl)-4-[2,3-dimethyl-5-[6-(trifluoromethyl)-3-pyridyl]pyrido[3,4-b]pyrazin-7-yl]morpholine] | ≤ 50 nM |
| Cc1nc2cc(N3CCO[C@H](c4cnn(C5CC5)c4)C3)nc(-c3ccc(C(F)(F)F)nc3)c2nc1C [Example 385, (2R)-2-(1-cyclopropylpyrazol-4-yl)-4-[2,3-dimethyl-5-[6-(trifluoromethyl)-3-pyridyl]pyrido[3,4-b]pyrazin-7-yl]morpholine] | 50 to 500 nM |
| Cc1cc([C@H]2CN(c3nc(-c4cc(F)c(Cl)cc4F)c4nc(C)c(C)nc4n3)CCO2)ccn1 [Example 387, (2S)-4-[4-(4-chloro-2,5-difluoro-phenyl)-6,7-dimethyl-pteridin-2-yl]-2-(2-methyl-4-pyridyl)morpholine] | ≤ 50 nM |
| Cc1cc([C@@H]2CN(c3nc(-c4cc(F)c(Cl)cc4F)c4nc(C)c(C)nc4n3)CCO2)ccn1 [Example 391, (2R)-4-[4-(4-chloro-2,5-difluoro-phenyl)-6,7-dimethyl-pteridin-2-yl]-2-(2-methyl-4-pyridyl)morpholine] | ≤ 50 nM |
| Cc1cc([C@@H]2C[C@H](c3nc(-c4ccc(Cl)c(F)c4F)c4nc(C)c(C)nc4n3)CCO2)ccn1 [Example 396, 4-(4-chloro-2,3-difluorophenyl)-6,7-dimethyl-2-((2S,4R)-2-(2-methylpyridin-4-yl)tetrahydro-2H-pyran-4-yl)pteridine] | 50 to 500 nM |
| Cc1cc([C@H]2C[C@@H](c3nc(-c4ccc(Cl)c(F)c4F)c4nc(C)c(C)nc4n3)CCO2)ccn1 [Example 397, 4-(4-chloro-2,3-difluorophenyl)-6,7-dimethyl-2-((2R,4S)-2-(2-methylpyridin-4-yl)tetrahydro-2H-pyran-4-yl)pteridine] | ≤ 50 nM |
| Cc1nc2nc(C3CCOC(c4cnn(C5CC5)c4)C3)cc(-c3ccc(Cl)cc3F)c2nc1C (stereo not drawn) [Example 402, 8-(4-chloro-2-fluorophenyl)-6-(2-(1-cyclopropyl-1H-pyrazol-4-yl)tetrahydro-2H-pyran-4-yl)-2,3-dimethylpyrido[2,3-b]pyrazine] | ≤ 50 nM |

Next, values leading:

| EC50 | Structure (SMILES) |
| --- | --- |
| 50 to 500 nM | Cc1cc([C@@H]2CN(c3nc(C45CC(C(F)(F)F)(C4)C5)c4ncc(C)nc4n3)CCO2)ccn1 [Example 353, (R)-4-(7-methyl-4-(3-(trifluoromethyl)bicyclo[1.1.1]pentan-1-yl)pteridin-2-yl)-2-(2-methylpyridin-4-yl)morpholine] |
| ≤ 50 nM | Cc1nc2nc(N3CC(C)OC(c4cnn(C5CC5)c4)C3)nc(C34CC(C(F)(F)F)(C3)C4)c2nc1C (stereo not drawn) [Example 356, 2-(1-cyclopropyl-1H-pyrazol-4-yl)-4-(6,7-dimethyl-4-(3-(trifluoromethyl)bicyclo[1.1.1]pentan-1-yl)pteridin-2-yl)-6-methylmorpholine] |
| ≤ 50 nM | Cc1cnc2c(C34CC(C(F)(F)F)(C3)C4)nc(N3CCO[C@H](c4cnn(C5CC5)c4)C3)nc2n1 [Example 359, (R)-2-(1-cyclopropyl-1H-pyrazol-4-yl)-4-(7-methyl-4-(3-(trifluoromethyl)bicyclo[1.1.1]pentan-1-yl)pteridin-2-yl)morpholine] |
| ≤ 50 nM | Cc1cnc2c(C34CC(C(F)(F)F)(C3)C4)nc(C3CCOC(c4cnn(C5CC5)c4)C3)nc2n1 (stereo not drawn) [Example 360, 2-(2-(1-cyclopropyl-1H-pyrazol-4-yl)tetrahydro-2H-pyran-4-yl)-7-methyl-4-(3-(trifluoromethyl)bicyclo[1.1.1]pentan-1-yl)pteridine] |
| 50 to 500 nM | Cc1nc2cc(N3CC(C)OC(c4cnn(C5CC5)c4)C3)nc(-c3ccc(Cl)cc3F)c2nc1C (stereo not drawn) [Example 367, 4-(5-(4-chloro-2-fluorophenyl)-2,3-dimethylpyrido[3,4-b]pyrazin-7-yl)-2-(1-cyclopropyl-1H-pyrazol-4-yl)-6-methylmorpholine] |
| ≤ 50 nM | Cc1nc2nc(N3CC(C)OC(c4cnn(C5CC5)c4)C3)nc(-c3ccc(F)cc3F)c2nc1C (stereo not drawn) [Example 369, 2-(1-cyclopropyl-1H-pyrazol-4-yl)-4-(4-(2,4-difluorophenyl)-6,7-dimethylpteridin-2-yl)-6-methylmorpholine] |
| ≤ 50 nM | Cc1nc2cc(N3C[C@@H](c4cnn(C5CC5)c4)O[C@@H](C)C3)nc(-c3ccc(F)cc3F)c2nc1C [Example 398, (2R,6S)-2-(1-cyclopropyl-1H-pyrazol-4-yl)-4-(5-(2,4-difluorophenyl)-2,3-dimethylpyrido[3,4-b]pyrazin-7-yl)-6-methylmorpholine] |
| 50 to 500 nM | Cc1nc2cc(N3C[C@@H](C)O[C@@H](c4cnn(C5CC5)c4)C3)nc(-c3ccc(F)cc3F)c2nc1C [Example 403, (2S,6R)-2-(1-cyclopropyl-1H-pyrazol-4-yl)-4-(5-(2,4-difluorophenyl)-2,3-dimethylpyrido[3,4-b]pyrazin-7-yl)-6-methylmorpholine] |
| ≤ 50 nM | Cc1cnc2c(C34CC(C(F)(F)F)(C3)C4)nc(N3C[C@H](C)O[C@@H](c4cnn(C5CC5)c4)C3)nc2n1 [Example 404, (2S,6S)-2-(1-cyclopropyl-1H-pyrazol-4-yl)-6-methyl-4-(7-methyl-4-(3-(trifluoromethyl)bicyclo[1.1.1]pentan-1-yl)pteridin-2-yl)morpholine] |
| 50 to 500 nM | Cc1cnc2c(C34CC(C(F)(F)F)(C3)C4)nc(N3C[C@@H](C)O[C@H](c4cnn(C5CC5)c4)C3)nc2n1 [Example 405, (2R,6R)-2-(1-cyclopropyl-1H-pyrazol-4-yl)-6-methyl-4-(7-methyl-4-(3-(trifluoromethyl)bicyclo[1.1.1]pentan-1-yl)pteridin-2-yl)morpholine] |
| 500 to 3000 nM | Cc1cnc2c(C34CC(C(F)(F)F)(C3)C4)nc([C@@H]3CCO[C@@H](c4cnn(C5CC5)c4)C3)nc2n1 [Example 406, 2-((2R,4R)-2-(1-cyclopropyl-1H-pyrazol-4-yl)tetrahydro-2H-pyran-4-yl)-7-methyl-4-(3-(trifluoromethyl)bicyclo[1.1.1]pentan-1-yl)pteridine] |
| ≤ 50 nM | Cc1cnc2c(C34CC(C(F)(F)F)(C3)C4)nc([C@H]3CCO[C@@H](c4cnn(C5CC5)c4)C3)nc2n1 [Example 407, 2-((2R,4S)-2-(1-cyclopropyl-1H-pyrazol-4-yl)tetrahydro-2H-pyran-4-yl)-7-methyl-4-(3-(trifluoromethyl)bicyclo[1.1.1]pentan-1-yl)pteridine] |
| ≤ 50 nM | Cc1nc2nc(N3C[C@H](C)O[C@@H](c4cnn(C5CC5)c4)C3)nc(C34CC(C(F)(F)F)(C3)C4)c2nc1C [Example 408, (2S,6S)-2-(1-cyclopropyl-1H-pyrazol-4-yl)-4-(6,7-dimethyl-4-(3-(trifluoromethyl)bicyclo[1.1.1]pentan-1-yl)pteridin-2-yl)-6-methylmorpholine] |
| 50 to 500 nM | Cc1nc2nc(N3C[C@@H](C)O[C@H](c4cnn(C5CC5)c4)C3)nc(C34CC(C(F)(F)F)(C3)C4)c2nc1C [Example 409, (2R,6R)-2-(1-cyclopropyl-1H-pyrazol-4-yl)-4-(6,7-dimethyl-4-(3-(trifluoromethyl)bicyclo[1.1.1]pentan-1-yl)pteridin-2-yl)-6-methylmorpholine] |
